Laboratory results reported in patent EP1609872A1, “A method for selecting a gene involved in nisin resistance in bacteria” (Stichting voor de Technische Wetenschappen, priority 2004, dated 2005).

Assays:
L. lactis IL1403 Nis^R = assay: MIC determination (nisin sensitivity assay); format: cell-based, Lactococcus lactis
Procedure: Generation of nisin-resistant variants of L. lactis IL1403― A nisin stock solution was derived from nisaplin, (2.5% nisin, Aplin and Barrett, Danisco, Denmark) as described earlier (44). Nisin-resistant isogenic variants of L. lactis IL1403 were obtained by growing the strain in broth, while stepwise increasing the nisin concentration, as described before (29).
Nisin sensitivity assays― Sensitivity to nisin was determined essentially as described before (32) for the strains L. lactis NZ9000, L. lactis NZ9000 ΔgalAMK, L. lactis MG1363 and L. lactis MG1363 ΔdltD (16). For the strains of L. lactis NZ9000 (pNZ8048) and L. lactis NZ9000 (pJK1), the cells were diluted 50-fold in fresh medium. At an OD600 of 0.2 the cells of both cultures were induced with 4 µg/L nisin for 2 h. Nisin induction of PnisA in the pNZ8048 derivatives was performed as described by de Ruyter et al. (12). Outgrowth in all wells was determined at the moment when wells containing cells without nisin had reached an OD595 of 0.8, measured in an ELISA micro titer plate reader (Spectramax plus 384, Molecular Devices, Wageningen, the Netherlands). MIC values were calculated from the lowest concentration of nisin at which growth of the test strain was inhibited.

M. flavus Nis^R = assay: Determination of the Minimal Inhibitory Concentration (Example 2); format: cell-based, Micrococcus flavus; conditions: cross-resistance of the Nis^R strains
Procedure: M. flavus and L. lactis were grown overnight at their optimum growth conditions. The Nis^R variants were grown in the presence of nisin (3 mg/L). The MIC values were estimated essentially as described before (23).

C=C1NC(=O)[C@@H]2NC(=O)[C@H](CC(C)C)NC(=O)[C@H](NC(=O)[C@@H]3CS[C@@H](C)[C@@H](NC(=O)[C@H](Cc4ccccc4)NC(=O)[C@@H]4NC(=O)[C@@H](N)CS[C@H]4C)C(=O)N[C@@H](CC(C)C)C(=O)N4CCC[C@H]4C(=O)NCC(=O)NCC(=O)NCC(=O)NCC(=O)N[C@@H](C(C)C)C(=O)N3)[C@H](C)SC[C@H](NC(=O)[C@H](CCC(=O)O)NC1=O)C(=O)N[C@@H]([C@@H](C)CC)C(=O)N/C=C\S[C@H]2C [Mersacidin, mersacidin]
cross-resistance (L. lactis IL1403 Nis^R): no cross-resistance | change in MIC in the nisin resistant strain (M. flavus Nis^R): No change
